Assay results reported in ChEMBL document CHEMBL1129330, “Synthesis and pharmacological characterization of all sixteen stereoisomers of 2-(2'-carboxy-3'-phenylcyclopropyl)glycine. Focus on (2S,1'S,2'S,3'R)-2-(2'-carboxy-3'-phenylcyclopropyl)glycine, a novel and selective group II metabotropic glutamate receptors antagonist” (J Med Chem, 1996).

Columns and labels:
[1] = Inhibitory concentration towards the sodium dependent glutamate transport into synaptosomes.; type: functional, subcellular, Brain
[2] = molecular target: T1, Metabotropic glutamate receptor 2 (Homo sapiens, UniProt Q14416); experiment: Effective concentration forskolin-stimulated cAMP formation in BHK cells expressing mGluR2 receptor; type: functional, cell-based
T1 sequence (Q14416 whole entry): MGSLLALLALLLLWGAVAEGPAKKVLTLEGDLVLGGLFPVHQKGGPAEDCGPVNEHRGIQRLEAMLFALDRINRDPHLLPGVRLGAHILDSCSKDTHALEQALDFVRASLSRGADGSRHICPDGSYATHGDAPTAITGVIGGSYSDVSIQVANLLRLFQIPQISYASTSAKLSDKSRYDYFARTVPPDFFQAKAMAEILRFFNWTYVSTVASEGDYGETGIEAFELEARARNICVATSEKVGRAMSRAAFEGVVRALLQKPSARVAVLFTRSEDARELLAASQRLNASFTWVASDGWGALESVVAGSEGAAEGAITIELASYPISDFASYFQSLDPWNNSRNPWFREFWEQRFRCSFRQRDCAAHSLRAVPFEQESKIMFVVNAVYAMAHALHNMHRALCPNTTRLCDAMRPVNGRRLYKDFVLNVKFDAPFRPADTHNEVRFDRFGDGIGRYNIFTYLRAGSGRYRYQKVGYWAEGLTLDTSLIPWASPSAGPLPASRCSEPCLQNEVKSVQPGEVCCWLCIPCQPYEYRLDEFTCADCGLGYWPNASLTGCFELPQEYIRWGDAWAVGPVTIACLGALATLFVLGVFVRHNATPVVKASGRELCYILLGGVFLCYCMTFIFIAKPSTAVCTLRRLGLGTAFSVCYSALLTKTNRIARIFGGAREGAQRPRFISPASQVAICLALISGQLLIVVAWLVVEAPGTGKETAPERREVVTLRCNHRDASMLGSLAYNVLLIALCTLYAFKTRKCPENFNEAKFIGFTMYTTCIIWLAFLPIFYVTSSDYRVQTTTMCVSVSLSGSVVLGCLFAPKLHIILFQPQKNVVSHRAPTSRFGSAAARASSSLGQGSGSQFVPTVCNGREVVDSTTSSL

[3] = molecular target: T1, Metabotropic glutamate receptor 2; experiment: Concentration required for the half-maximal inhibition of cAMP […] in BHK cells expressing mGluR2; type: functional, cell-based
[4] = Inhibitory concentration towards calcium/chloride-dependent glutamate transport into synaptosomes; type: functional, subcellular, Rattus norvegicus, Brain
[5] = molecular target: Glutamate receptor ionotropic, AMPA (Rattus norvegicus, UniProt P19490+P19491+P19492+P19493); experiment: Binding affinity towards Ionotropic glutamate receptor AMPA; type: protein-complex assay
[6] = molecular target: Glutamate receptor ionotropic, kainate; experiment: Binding affinity towards Ionotropic glutamate receptor kainate; type: protein-complex assay
Glutamate NMDA receptor = experiment: Binding affinity towards Ionotropic glutamate receptor NMDA; type: protein-complex assay
[7] = molecular target: T1, Metabotropic glutamate receptor 2; experiment: Concentration required for the half-maximal inhibition of cAMP formation in BHK cells expressing mGluR2; type: functional, cell-based
[8] = molecular target: T1, Metabotropic glutamate receptor 2; experiment: Effective concentration of compound against forskolin-stimulated cAMP formation in BHK cells expressing mGluR2 receptor; type: functional, cell-based
[9] = molecular target: T1, Metabotropic glutamate receptor 2; experiment: Concentration required for the half-maximal inhibition of cAMP formation in BHK cells expressing mGluR2.; type: functional, cell-based
[10] = molecular target: T1, Metabotropic glutamate receptor 2; experiment: Antagonistic activity against mGluR2 was determined; type: functional
[11] = molecular target: Metabotropic glutamate receptor 1 (Homo sapiens, UniProt Q13255); experiment: Binding affinity towards mGluR1a was determined
Metabotropic glutamate receptor 1, sequence (Q13255 whole entry): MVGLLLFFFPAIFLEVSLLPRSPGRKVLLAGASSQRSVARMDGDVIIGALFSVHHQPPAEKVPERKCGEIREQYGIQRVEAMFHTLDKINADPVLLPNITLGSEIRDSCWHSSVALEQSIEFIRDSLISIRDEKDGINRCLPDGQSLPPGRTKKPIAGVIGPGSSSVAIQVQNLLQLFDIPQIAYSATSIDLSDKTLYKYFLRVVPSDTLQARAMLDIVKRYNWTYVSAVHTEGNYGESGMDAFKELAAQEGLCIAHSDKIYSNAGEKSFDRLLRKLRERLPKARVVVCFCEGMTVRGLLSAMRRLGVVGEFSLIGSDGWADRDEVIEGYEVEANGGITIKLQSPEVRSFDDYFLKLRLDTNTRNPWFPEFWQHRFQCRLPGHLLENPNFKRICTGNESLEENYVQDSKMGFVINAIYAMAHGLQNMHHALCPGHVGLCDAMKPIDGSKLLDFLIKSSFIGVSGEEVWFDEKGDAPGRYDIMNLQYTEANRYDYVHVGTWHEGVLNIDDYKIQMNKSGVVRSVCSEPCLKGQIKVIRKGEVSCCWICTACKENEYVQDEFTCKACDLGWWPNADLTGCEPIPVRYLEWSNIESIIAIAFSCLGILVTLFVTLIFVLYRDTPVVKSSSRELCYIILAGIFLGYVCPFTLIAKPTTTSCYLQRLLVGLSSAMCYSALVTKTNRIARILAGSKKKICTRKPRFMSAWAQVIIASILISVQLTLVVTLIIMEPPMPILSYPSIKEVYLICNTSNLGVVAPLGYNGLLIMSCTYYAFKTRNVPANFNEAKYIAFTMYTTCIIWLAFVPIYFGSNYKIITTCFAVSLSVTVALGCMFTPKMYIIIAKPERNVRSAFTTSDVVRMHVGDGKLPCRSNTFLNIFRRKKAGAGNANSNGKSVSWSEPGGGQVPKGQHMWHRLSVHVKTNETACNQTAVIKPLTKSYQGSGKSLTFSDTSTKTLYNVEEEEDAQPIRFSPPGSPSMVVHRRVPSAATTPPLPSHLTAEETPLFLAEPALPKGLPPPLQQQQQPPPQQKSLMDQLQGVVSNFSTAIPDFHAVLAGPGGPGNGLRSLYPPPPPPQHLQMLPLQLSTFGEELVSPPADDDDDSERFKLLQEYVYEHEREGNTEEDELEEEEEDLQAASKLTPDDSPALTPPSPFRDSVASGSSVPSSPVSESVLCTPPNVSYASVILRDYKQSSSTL

Structure (SMILES) | IC50 [1] [µM] | EC50 [2] [µM] | IC50 [3] [µM] | IC50 [4] [µM] | Ki [5] [µM] | Ki [6] [µM] | Ki (Glutamate NMDA receptor) [µM] | IC50 [7] [µM] | EC50 [8] [µM] | IC50 [9] [µM] | IC50 [10] [µM] | Ki [11] [µM] | EC50 ([2]; bhk) [µM] | IC50 ([3]; bhk) [µM]
N[C@H](C(=O)O)[C@@H]1[C@H](C(=O)O)[C@@H]1c1ccccc1 | > 300 | > 300 | > 300 | 270 | > 220 | 155 | > 200 |  |  |  |  |  |  | 
N[C@H](C(=O)O)[C@@H]1[C@@H](C(=O)O)[C@H]1c1ccccc1 | > 300 | > 300 | > 300 | 7 | > 220 | 126 | 192 |  |  |  |  |  |  | 
N[C@H](C(=O)O)[C@H]1[C@@H](C(=O)O)[C@@H]1c1ccccc1 | > 300 | > 300 | > 300 | 213 | 141 | 144 | > 200 |  |  |  |  |  |  | 
N[C@H](C(=O)O)[C@H]1[C@@H](C(=O)O)[C@H]1c1ccccc1 | > 300 | > 300 | > 300 | 233 | > 220 | > 190 | > 200 |  |  |  |  |  |  | 
N[C@H](C(=O)O)[C@H]1[C@H](C(=O)O)[C@@H]1c1ccccc1 | > 300 | > 300 | > 300 | 85 | > 220 | > 190 | 25 |  |  |  |  |  |  | 
N[C@H](C(=O)O)[C@H]1[C@H](C(=O)O)[C@H]1c1ccccc1 | > 300 | > 300 |  | 41 | 124 | 25 | 107 | > 300 |  |  |  |  |  | 
N[C@@H](C(=O)O)[C@@H]1[C@@H](C(=O)O)[C@@H]1c1ccccc1 | > 300 |  |  | > 300 | 212 | > 190 | 193 |  | > 300 | > 300 |  |  |  | 
N[C@@H](C(=O)O)[C@@H]1[C@H](C(=O)O)[C@@H]1c1ccccc1 | > 300 | > 300 | > 300 | 143 | 251 | 122 | > 200 |  |  |  |  |  |  | 
N[C@@H](C(=O)O)[C@@H]1[C@@H](C(=O)O)[C@H]1c1ccccc1 | > 300 | > 300 | > 300 | 138 | > 220 | > 190 | 29 |  |  |  |  |  |  | 
N[C@@H](C(=O)O)[C@H]1[C@@H](C(=O)O)[C@@H]1c1ccccc1 | > 300 | > 300 | > 300 | 64 | 160 | 155 | 123 |  |  |  |  |  |  | 
N[C@@H](C(=O)O)[C@H]1[C@@H](C(=O)O)[C@H]1c1ccccc1 | > 300 | > 300 | > 300 | 32 | > 220 | 117 | > 200 |  |  |  |  |  |  | 
N[C@@H](C(=O)O)[C@H]1[C@H](C(=O)O)[C@@H]1c1ccccc1 | > 300 | > 300 | > 300 | 23 | > 300 | > 190 | > 200 |  |  |  |  |  |  | 
N[C@@H](C(=O)O)[C@H]1[C@H](C(=O)O)[C@H]1c1ccccc1 | > 300 | 122 |  | > 300 | 125 | 15 | 129 |  |  |  |  |  |  | 
CC(N)(C(=O)O)c1ccc(C(=O)O)cc1 (stereo not given) |  |  |  |  |  |  |  |  |  |  | 50 | 50 |  | 
N[C@H](C(=O)O)[C@@H]1[C@@H](C(=O)O)[C@@H]1c1ccccc1 | > 300 |  | 8 | > 300 | > 220 | > 190 | > 200 |  |  |  |  |  |  | 
N[C@@H](C(=O)O)[C@@H]1[C@H](C(=O)O)[C@H]1c1ccccc1 (stereo in doubt; 44) | > 300 | > 300 | > 300 | > 300 | > 220 | > 190 | > 200 |  |  |  |  |  |  | 
N[C@@H](C(=O)O)[C@@H]1[C@H](C(=O)O)[C@H]1c1ccccc1 (stereo in doubt; 47) |  |  |  | 185 | 285 | 221 |  |  |  |  |  |  | > 300 | > 300
